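Each compound was tested at five concentrations against cells in 96-well plates for 48 hours. Abbreviation: GI50, concentration required for 50% inhibition of growth. TGI: concentration producing complete growth inhibition.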
Tests used:
Assay in all cases: DTP human tumour cell line panel, 48 h
[1] = tested on: CAKI-1 renal
[2] = tested on: LOX IMVI melanoma
[3] = tested on: NCI-H460 lung
[4] = tested on: OVCAR-3 ovarian
[5] = tested on: SK-MEL-2 melanoma
[6] = tested on: SK-MEL-5 melanoma
[7] = tested on: SNB-75 CNS
[8] = tested on: TK-10 renal
[9] = tested on: U251 CNS
[10] = tested on: UACC-62 melanoma

| SMILES | TGI [1] [µM] | TGI [2] [µM] | TGI [3] [µM] | TGI [4] [µM] | TGI [5] [µM] | TGI [6] [µM] | TGI [7] [µM] | TGI [8] [µM] | TGI [9] [µM] | TGI [10] [µM] | GI50 [1] [µM] | GI50 [2] [µM] | GI50 [3] [µM] | GI50 [4] [µM] | GI50 [5] [µM] | GI50 [6] [µM] | GI50 [7] [µM] | GI50 [8] [µM] | GI50 [9] [µM] | GI50 [10] [µM] |
| --- | --- | --- | --- | --- | --- | --- | --- | --- | --- | --- | --- | --- | --- | --- | --- | --- | --- | --- | --- | --- |
| CCc1nc(N)nc(N)c1-c1ccc(Cl)c(Cl)c1 | > 100 | > 100 | > 100 | > 100 | > 100 | > 100 | > 100 | > 100 | > 100 | > 100 |  |  |  |  |  |  |  |  |  |  |
| COc1ccccc1C1C(C(=O)O)=C(CO)Oc2cc3c(cc21)OCO3 (configuration not stated) | > 100 | > 100 | > 100 | > 100 | > 100 | > 100 | > 100 | > 100 | > 100 | > 100 |  |  |  |  |  |  |  |  |  |  |
| Cc1ccc(S(=O)(=O)Oc2cc(-c3ccccc3)nc3ccccc23)cc1 |  | > 78.5 | 13.7 | 5.73 | 17 | 21.3 | 6.93 |  | 9.85 | 20.7 |  |  |  |  |  |  |  |  |  |  |
| NC(Cc1cccc([N+](=O)[O-])c1)C(=O)O (configuration not stated) | > 100 | > 100 | > 100 | > 100 | > 100 | > 100 |  | > 100 | > 100 | > 100 |  |  |  |  |  |  |  |  |  |  |
| O=[N+]([O-])c1ccc(C=C2C(Cl)=C(Cl)C(Cl)=C2Cl)cc1 | 3.4 | 4.3 | > 100 | 3.46 | 8.89 | > 100 | 6.98 | 7.58 | 3.46 | 24.4 | 1.11 | 2 | 3.62 | 1.83 | 2.77 | 21.8 | 2.05 | 2.41 | 1.77 | 4.24 |
| CC1CC=CC(O)C1 (configuration not stated) |  | > 100 | > 100 | > 100 | > 100 | > 100 | > 100 |  | > 100 | > 100 |  |  |  |  |  |  |  |  |  |  |
| Cc1ccc2c(n1)C(=O)c1[nH]c3ccccc3c1C2=O | > 100 | 24.8 | 1.63 | 5.72 | > 100 | 0.583 |  | > 100 | > 100 | 1.88 | 2.37 | 1.01 | 0.337 | 1.26 | 3.36 | 0.212 |  | 12 | 2.93 | 0.557 |
| NCCCNc1nc2ccccc2c2c(=O)c3cc(OC(F)(F)F)ccc3sc12 | 2.93 |  | 2.52 |  | 3.72 | 3.36 | 2.73 | 3.74 |  | 3.07 | 1.58 |  | 1.11 |  | 1.93 | 1.83 | 1.39 | 2.14 |  | 1.66 |
| CCC[CH2][Ge]([CH2]CCC)([CH2]CCC)[O]C(=O)CC(=O)c1ccccc1 | 20.6 | 1.72 | 12.4 | 17.6 | 17.9 |  |  | 21 | 17.6 | 10.1 | 6.37 | 0.313 | 0.325 | 2.63 | 2.22 |  |  | 7.03 | 3.27 | 1.7 |
| C[C@]12C=CC(=O)C=C1CC[C@H]1[C@@H]3C[C@@H](O)[C@](O)(C(=O)CO)[C@@]3(C)C[C@H](O)[C@@]12F | > 100 | > 100 | > 100 | > 100 | > 100 | > 100 | > 100 | > 100 | > 100 | > 100 |  |  |  |  |  |  |  |  |  |  |
| NC(N)=NCCN=C(N)N | > 100 | > 100 | > 100 | > 100 | > 100 | > 100 | > 100 | > 100 | > 100 | > 100 |  |  |  |  |  |  |  |  |  |  |
| NC(CCCCP(=O)(O)O)C(=O)O (configuration not stated) | > 100 | > 100 | > 100 | > 100 | > 100 | > 100 | > 100 | > 100 | > 100 | > 100 |  |  |  |  |  |  |  |  |  |  |
| Cc1nc(N)sc1-c1ccnc(Nc2ccc(N3CCOCC3)cc2)n1 | 3.05 | > 100 | > 43.9 | > 100 | 59.3 | > 100 | 5.57 | 8.14 | > 100 |  | 0.517 | 0.907 | 0.495 | 7.37 | 5.16 | 5.05 | 1.38 | 1.06 | 2.36 |  |
| C=CC(Br)(CBr)CCC(Cl)C(C)C (configuration not stated) | 7.52 | 2.46 | 4.3 | 4.13 | 3.92 | 3.91 | 3.04 | 3.5 | 3.02 | 2.98 |  |  |  |  |  |  |  |  |  |  |
| CC(=O)Oc1cccc2c(/C=N/NC(N)=S)ncc(C)c12 | 15.6 | 8.98 | 7.81 | 32.3 | 25.3 | 16.4 | > 55.6 | 22 | > 42.6 | 12.3 |  |  |  |  |  |  |  |  |  |  |
| COc1ccc(C2CC(c3cccc(Nc4ccncc4)c3)=NN2c2cc(Cl)cc(Cl)c2)cc1 (configuration not stated) | 3.1 | 2.97 | 3.45 | 3.35 | 5.02 | 3.28 | 11.7 |  |  | 3.94 | 1.62 | 1.62 | 1.86 | 1.81 | 2.36 | 1.81 | 2.09 |  |  | 1.9 |
| O=NN(CCCl)C(=O)NC1CCSc2ccccc21 (configuration not stated) | > 100 | > 100 | > 100 | > 100 | > 100 | > 100 | > 100 |  | > 100 | > 100 |  |  |  |  |  |  |  |  |  |  |
| COc1cc(C[S+]2CCCC2)c(SC)cc1C[S+]1CCCC1 | > 100 | > 100 | > 100 | > 100 | > 100 | > 100 | > 100 | > 100 | > 100 | > 100 |  |  |  |  |  |  |  |  |  |  |
| CC(=O)OC1CCC2(C)C3CCC4(C)C(c5ccc(=O)oc5)CC5OC54C3CCC2(O)C1 (configuration not stated) | 2.23 | 16.5 | 1.75 | 2.29 | 13 | 4.76 | 5.77 |  | 9.14 | 6.95 |  |  |  |  |  |  |  |  |  |  |
| c1ccc(N=C2SC(=NC3CCCCC3)N(C3CCCCC3)C2=Nc2ccccc2)cc1 | > 100 |  | > 100 | > 100 | > 100 | > 100 | > 100 |  | > 100 | > 100 |  |  |  |  |  |  |  |  |  |  |
| O=C(OC(=O)n1ccc2ccccc21)n1ccc2ccccc21 | > 100 | > 100 | > 100 | > 100 | > 100 | > 100 | > 100 |  | > 100 | > 100 |  |  |  |  |  |  |  |  |  |  |

— PubChem BioAssay (NCI)
